The values below come from ChEMBL document CHEMBL3872220, “Amphiphilic xanthones as a potent chemical entity of anti-mycobacterial agents with membrane-targeting properties” (Eur J Med Chem, 2016).

SMILES strings stand for the structures.

For the first test, the system named is Mycobacterium tuberculosis variant bovis. Description: Antimycobacterial activity against Mycobacterium bovis BCG ATCC 35734 assessed as ATP leakage by measuring extracellular ATP at 2 times MIC measured at 1 hr post dose by luciferase reporter gene assay. It counts as functional, Mycobacterium tuberculosis variant bovis BCG. For orientation: A reporter such as luciferase makes a cellular process visible.
Consider `CCN(CC)CCCCOc1cc2oc3cc(OCCCCN(CC)CC)c(OC)c(CC=C(C)C)c3c(=O)c2c(O)c1CC=C(C)C`, for which the Activity is on record as 42.4%.

The next test has the same test system. Description: Antimycobacterial activity against Mycobacterium bovis BCG ATCC 35734 assessed as ATP leakage by measuring intracellular ATP at 4 times MIC measured at 3 hrs post dose by luciferase reporter gene assay. It counts as functional, Mycobacterium tuberculosis variant bovis BCG.
Take `CCN(CC)CCCCOc1cc2oc3cc(OCCCCN(CC)CC)c(OC)c(CC=C(C)C)c3c(=O)c2c(O)c1CC=C(C)C`: the Activity was determined as 10.4%.

The test system is the same in a further test. Put plainly: Antimycobacterial activity against Mycobacterium bovis BCG ATCC 35734 assessed as ATP leakage by measuring intracellular ATP at 0.5 times MIC measured at 6 hrs post dose by luciferase reporter gene assay. It counts as functional, Mycobacterium tuberculosis variant bovis BCG.
Consider `CCN(CC)CCCCOc1cc2oc3cc(OCCCCN(CC)CC)c(OC)c(CC=C(C)C)c3c(=O)c2c(O)c1CC=C(C)C`, for which the Activity turned out to be 77.1%.

For the next test the test system is unchanged. Put plainly: Antimycobacterial activity against Mycobacterium bovis BCG ATCC 35734 assessed as ATP leakage by measuring extracellular ATP at 0.5 times MIC measured at 9 hrs post dose by luciferase reporter gene assay. It counts as functional, Mycobacterium tuberculosis variant bovis BCG.
Take `CCN(CC)CCCCOc1cc2oc3cc(OCCCCN(CC)CC)c(OC)c(CC=C(C)C)c3c(=O)c2c(O)c1CC=C(C)C`: the Activity was 47.2%.

The next test has the same test system. Description: Antimycobacterial activity against Mycobacterium bovis BCG ATCC 35734 assessed as ATP leakage by measuring extracellular ATP at 0.5 times MIC measured at 24 hrs post dose by luciferase reporter gene assay. It counts as functional, Mycobacterium tuberculosis variant bovis BCG.
As to `CCN(CC)CCCCOc1cc2oc3cc(OCCCCN(CC)CC)c(OC)c(CC=C(C)C)c3c(=O)c2c(O)c1CC=C(C)C`, the Activity was determined as 34.7%.

For another test the test system is unchanged. Put plainly: Antimycobacterial activity against Mycobacterium bovis BCG ATCC 35734 assessed as ATP leakage by measuring intracellular ATP at 2 times MIC measured at 24 hrs post dose by luciferase reporter gene assay. Format: functional, Mycobacterium tuberculosis variant bovis BCG.
Regarding `CCN(CC)CCCCOc1cc2oc3cc(OCCCCN(CC)CC)c(OC)c(CC=C(C)C)c3c(=O)c2c(O)c1CC=C(C)C`, the Activity turned out to be 5.9%.

For a further test the test system is unchanged. Put plainly: Antimycobacterial activity against Mycobacterium bovis BCG ATCC 35734 assessed as ATP leakage by measuring intracellular ATP at 4 times MIC measured at 6 hrs post dose by luciferase reporter gene assay. It counts as functional, Mycobacterium tuberculosis variant bovis BCG.
Take `CCN(CC)CCCCOc1cc2oc3cc(OCCCCN(CC)CC)c(OC)c(CC=C(C)C)c3c(=O)c2c(O)c1CC=C(C)C`: the Activity was 6.7%.

A further test has the same test system. Description: Antimycobacterial activity against Mycobacterium bovis BCG ATCC 35734 assessed as ATP leakage by measuring extracellular ATP at 1 MIC measured immediatey after addition of compounds by luciferase reporter gene assay. It counts as functional, Mycobacterium tuberculosis variant bovis BCG.
With `CCN(CC)CCCCOc1cc2oc3cc(OCCCCN(CC)CC)c(OC)c(CC=C(C)C)c3c(=O)c2c(O)c1CC=C(C)C`, the Activity came out at 2%.

The test system is the same in a further test. Description: Antimycobacterial activity against Mycobacterium bovis BCG ATCC 35734 assessed as ATP leakage by measuring intracellular ATP at 1 MIC measured at 6 hrs post dose by luciferase reporter gene assay. Format: functional, Mycobacterium tuberculosis variant bovis BCG.
For `CCN(CC)CCCCOc1cc2oc3cc(OCCCCN(CC)CC)c(OC)c(CC=C(C)C)c3c(=O)c2c(O)c1CC=C(C)C`, the Activity was 29.3%.

For the next test the test system is unchanged. Put plainly: Antimycobacterial activity against Mycobacterium bovis BCG ATCC 35734 assessed as ATP leakage by measuring extracellular ATP at 2 times MIC measured immediatey after addition of compounds by luciferase reporter gene assay. It counts as functional, Mycobacterium tuberculosis variant bovis BCG.
Turning to `CCN(CC)CCCCOc1cc2oc3cc(OCCCCN(CC)CC)c(OC)c(CC=C(C)C)c3c(=O)c2c(O)c1CC=C(C)C`, the Activity came to 3.6%.

A further test shares this test system. Description: Antimycobacterial activity against Mycobacterium bovis BCG ATCC 35734 assessed as ATP leakage by measuring extracellular ATP at 4 times MIC measured at 9 hrs post dose by luciferase reporter gene assay. Format: functional, Mycobacterium tuberculosis variant bovis BCG.
As for `CCN(CC)CCCCOc1cc2oc3cc(OCCCCN(CC)CC)c(OC)c(CC=C(C)C)c3c(=O)c2c(O)c1CC=C(C)C`, the Activity was determined as 94.5%.

For another test the test system is unchanged. Description: Antimycobacterial activity against Mycobacterium bovis BCG ATCC 35734 assessed as ATP leakage by measuring extracellular ATP at 2 times MIC measured at 6 hrs post dose by luciferase reporter gene assay. Format: functional, Mycobacterium tuberculosis variant bovis BCG.
As to `CCN(CC)CCCCOc1cc2oc3cc(OCCCCN(CC)CC)c(OC)c(CC=C(C)C)c3c(=O)c2c(O)c1CC=C(C)C`, the Activity was determined as 91.9%.

For another test the test system is unchanged. Description: Antimycobacterial activity against Mycobacterium bovis BCG ATCC 35734 assessed as ATP leakage by measuring intracellular ATP at 1 MIC measured at 9 hrs post dose by luciferase reporter gene assay. It counts as functional, Mycobacterium tuberculosis variant bovis BCG.
For the compound `CCN(CC)CCCCOc1cc2oc3cc(OCCCCN(CC)CC)c(OC)c(CC=C(C)C)c3c(=O)c2c(O)c1CC=C(C)C`, the Activity worked out at 14.7%.

Another test has the same test system. Description: Antimycobacterial activity against Mycobacterium bovis BCG ATCC 35734 assessed as ATP leakage by measuring extracellular ATP at 2 times MIC measured at 3 hrs post dose by luciferase reporter gene assay. Format: functional, Mycobacterium tuberculosis variant bovis BCG.
Turning to `CCN(CC)CCCCOc1cc2oc3cc(OCCCCN(CC)CC)c(OC)c(CC=C(C)C)c3c(=O)c2c(O)c1CC=C(C)C`, the Activity turned out to be 83.6%.

The next test has the same test system. Description: Antimycobacterial activity against Mycobacterium bovis BCG ATCC 35734 assessed as ATP leakage by measuring extracellular ATP at 1 MIC measured at 6 hrs post dose by luciferase reporter gene assay. Format: functional, Mycobacterium tuberculosis variant bovis BCG.
On to `CCN(CC)CCCCOc1cc2oc3cc(OCCCCN(CC)CC)c(OC)c(CC=C(C)C)c3c(=O)c2c(O)c1CC=C(C)C`, for which the Activity is reported as 70.7%.

For the next test the test system is unchanged. Description: Antimycobacterial activity against Mycobacterium bovis BCG ATCC 35734 assessed as ATP leakage by measuring extracellular ATP at 4 times MIC measured at 24 hrs post dose by luciferase reporter gene assay. It counts as functional, Mycobacterium tuberculosis variant bovis BCG.
For the compound `CCN(CC)CCCCOc1cc2oc3cc(OCCCCN(CC)CC)c(OC)c(CC=C(C)C)c3c(=O)c2c(O)c1CC=C(C)C`, the Activity was 93.2%.
